Like-named read-outs stand apart in the source and are kept apart here.
Assays:
[1] = system: oedema produced by carrageenin; assay: Anti-inflammatory activity (inhibition of oedema produced by carrageenin), method of Winter; assay type: in vivo, Male rats of the Sprague-Dawley HC/CEY strain; conditions: Rattus norvegicus, oral, 1 hour before carrageenin, ED-50 = dose which reduces the oedema volume by 25%
Procedure: ANTI-INFLAMMATORY ACTIVITY (INHIBITION OF OEDEMA PRODUCED BY CARRAGEENIN)
Method developed by Winter (Winter, C. A., Risley, E. A. and Nuss, G. W. Proc. Soc. Exp. Biol. Med., […] (1962)).
Male rats of the Sprague-Dawley HC/CEY strain are used, weighing from 90 to 110 g. The products are administered suspended in 5% gum arabic, by an oral method using an oesophageal probe, 1 hour before a subplantar injection in the right foot of each animal of 0.1 ml of 1% carrageenin suspension in physiological serum (NaCl 0.9%). The control animals are given 5% gum arabic, the total volume which is used in every case amounting to 10 ml/kg.
The volume of each foot is measured immediately before the carrageenin injection (time 0), then three and five hours after this injection using a mercury plethysmograph.
The inflammation index is calculated for each animal after 3 hours (I3) and after 5 hours (I5) after the carrageenin injection by means of the following formulae: [formula] wherein: VO =volume of the foot at time zero (immediately before the administration of carrageenin)
V3 =volume of the foot 3 hours after the injection of carrageenin
V5 =volume of the foot 5 hours after the injection of carrageenin.
The average inflammation index is calculated for the control batch after 3 hours (It3) and after 5 hours (It5).
The percentage of inhibition of the oedema (anti-inflammatory activity) is calculated for each animal by means of the formulae: [formula] wherein: A3 =anti-inflammatory activity in percentage of inhibition of the oedema after 3 hours
A5 =anti-inflammatory activity in percentage of inhibition of the oedema after 5 hours.
The anti-inflammatory activity is proportional to the logarithm of the administered dose. The dose which reduces the volume of the odema by 25% is obtained from the curve of dose logarithm-% effect. This dose is adopted as ED-50, since the maximum effect which is achieved is the reduction of the oedema by 50%.

[2] = system: pain induced by acetyl choline; assay: Analgesic activity with respect to the pain induced by acetyl choline (contortions), method of Collier; assay type: in vivo, Male mice of the Swiss strain; conditions: Mus musculus, po, dose which reduces the number of contortions to half the initial value
Procedure: Analgesic activity with respect to the pain induced by acetyl choline
Method developed by Collier (Collier, H. O. W. Dinneen, L. C. Johnson, C. A. and Schneider, C.--Br. J. Pharmac. Chemother., 32, 295-310 (1968)).
Male mice of the Swiss strain are used, weighing from 20 to 25 g. The mice are put into individual cages. A volume of 0.2 ml/20 g of a solution of acetyl choline bromide of 0.32 mg/ml is administered intraperitoneally to each animal. Thus, the injected dose of acetyl choline bromide is 3.2 mg/kg. The number of contortions or stretches performed by each mouse is counted over a period of 5 minutes. After 5 minutes, the products are administered using 5% gum arabic as a vehicle. After 40 and 120 minutes of administration of the products, another injection of acetyl choline is given and the number of contortions which are observed over a period of 5 minutes is counted.
The percentage of inhibition of the number of contortions after 40 and 120 minutes is calculated for each animal using the following formulae: [formula] wherein: NO =number of contortions before the product is administered
N40 =number of contortions 40 minutes after administration of the product
N120 =number of contortions 120 minutes after administration of the product.
The percentage of inhibition of the contortions is directly proportional to the logarithm of the administered dose. The dose which reduces the number of contortions to half the initial value (ED-50) is obtained from the curve of dose logarithm-% effect.

[3] = target: T1, prostaglandin-synthetase (1.14.99.1) (Bos taurus, UniProt O62664); assay: Inhibition of the prostaglandin-synthetase of seminal vesicle of cattle, method of Yoshimoto; assay type: biochemical; conditions: in vitro; 37° C., 5 minutes contact of enzyme with product, then 10 minutes incubation with arachidonic acid; pH 8.0
T1 construct: Prostaglandin-Synthetase of Seminal Vesicle of Cattle; from tissue; host or cells: seminal vesicle of cattle
T1 sequence (O62664 25-600): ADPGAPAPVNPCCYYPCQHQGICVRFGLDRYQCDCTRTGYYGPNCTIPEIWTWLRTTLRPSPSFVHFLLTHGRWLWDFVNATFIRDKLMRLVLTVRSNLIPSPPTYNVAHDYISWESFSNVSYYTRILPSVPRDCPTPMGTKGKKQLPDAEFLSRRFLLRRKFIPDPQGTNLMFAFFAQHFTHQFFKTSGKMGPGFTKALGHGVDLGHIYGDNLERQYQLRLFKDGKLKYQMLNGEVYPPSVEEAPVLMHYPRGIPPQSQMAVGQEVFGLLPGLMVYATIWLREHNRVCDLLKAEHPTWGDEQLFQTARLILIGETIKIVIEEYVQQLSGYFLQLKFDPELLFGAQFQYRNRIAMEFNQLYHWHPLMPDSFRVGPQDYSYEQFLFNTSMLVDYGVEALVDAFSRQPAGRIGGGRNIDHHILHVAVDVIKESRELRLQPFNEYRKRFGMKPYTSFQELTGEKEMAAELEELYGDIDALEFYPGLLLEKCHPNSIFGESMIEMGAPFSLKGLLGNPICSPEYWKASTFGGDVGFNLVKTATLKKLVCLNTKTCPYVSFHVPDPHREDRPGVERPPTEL
Procedure: Inhibition of the Prostaglandin-Synthetase of Seminal Vesicle of Cattle
The activity of the prostaglandin-synthetase (1.14.99.1) is determined by measuring the increases in absorbance at 278 nm due to the formation of prostaglandin B from prostaglandin E in an alkaline medium.
The incubation temperature was 37±0.1° C. in every case.
0.5 ml of substrate solution (0.6 mg of arachidonic acid in 10 ml of buffer) and 0.5 ml of buffer are added to 1.5 ml of cofactor solution (0.55 mg of hydroquinone+0.5 mg of hemoglobin+7.7 mg of glutathione in 12 ml of 0.2M Tris-HCl buffer of pH 8.0), containing 10 mg of enzyme, and the mixture is incubated at 37° C. for 10 minutes. The enzymatic reaction is stopped by the addition of 1.5 ml of 0.2M citric acid and the pGE is extracted with 2×5 ml of ethyl acetate. The organic phase is evaporated under a stream of nitrogen at 40° C. and the residue is redissolved in 2 ml of methanol and 0.5 ml of 3M potassium hydroxide. Finally, the absorptions at 278 nm are measured with respect to a blank to which 0.5 ml of buffer are added instead of 0.5 ml of substrate solution.
The enzymatic activity is expressed as an increase in the optical density for 10 minutes of reaction.
The subsequent stages are identical to those which have already been described. […]

[4] = 3 hours after carrageenin injection, read-out: ED-50 3 hours
[5] = 5 hours after carrageenin injection, read-out: ED-50 5 hours
[6] = 40 min, 40 minutes after administration, read-out: ED-50 40 min.
[7] = 2 h, 120 minutes after administration, read-out: ED-50 120 min.

Row | IC50 [3] | SMILES | ED50 [1, 4] | ED50 [1, 5] | ED50 [2, 6] | ED50 [2, 7]
1 | – | CCN1c2c(oc(=O)n(-c3ccccn3)c2=O)-c2ccccc2S1(=O)=O [Example 1, 5-ethyl-3-(2-pyridyl)-2H,5H-1,3-oxazino[5,6-c][1,2]benzothiazine-2,4-(3H)dione-6,6-dioxide] | > 40 mg/kg | > 40 mg/kg | > 160 mg/kg | > 160 mg/kg
2 | 100 µM | CN1c2c(oc(=O)n(-c3ccccn3)c2=O)-c2ccccc2S1(=O)=O [Example 2, 5-methyl-3-(2-pyridyl)-2H,5H-1,3-oxazino[5,6-c][1,2]benzothiazine-2,4-(3H)dione-6,6-dioxide] | 2.3 mg/kg | 2.6 mg/kg | 1.8 mg/kg | 1.1 mg/kg
3 | – | CN1c2c(oc(=S)n(-c3ccccn3)c2=O)-c2ccccc2S1(=O)=O [Example 3, 5-methyl-3-(2-pyridyl)-2H,5H-1,3-oxazino[5,6-c][1,2]benzothiazine-2(3H)thione-4-one-6,6-dioxide] | > 40 mg/kg | > 40 mg/kg | 25 mg/kg | 25 mg/kg
4 | – | Cc1cc(-n2c(=O)oc3c(c2=O)N(C)S(=O)(=O)c2ccccc2-3)no1 [Example 4, 5-methyl-3-[3-(5-methylisoxazolyl)]-2H,5H-1,3-oxazino[5,6-c][1,2]benzothiazine-2,4-(3H)dione-6,6-dioxide] | 38 mg/kg | 39 mg/kg | 154 mg/kg | 154 mg/kg
5 | – | CN1c2c(oc(=O)n(-c3ncccn3)c2=O)-c2ccccc2S1(=O)=O [Example 5, 5-methyl-3-(2-pyrimidinyl)-2H,5H-1,3-oxazino[5,6-c][1,2]benzothiazine-2,4-(3H)dione-6,6-dioxide] | > 40 mg/kg | > 40 mg/kg | > 160 mg/kg | > 160 mg/kg
6 | – | Cc1ccnc(-n2c(=O)oc3c(c2=O)N(C)S(=O)(=O)c2ccccc2-3)c1 [Example 6, 5-methyl-3-[2-(4-methylpyridyl)]-2H,5H-1,3-oxazino[5,6-c][1,2]benzothiazine-2,4-(3H)dione-6,6-dioxide] | > 40 mg/kg | > 40 mg/kg | > 160 mg/kg | > 160 mg/kg
7 | – | Cc1cccc(-n2c(=O)oc3c(c2=O)N(C)S(=O)(=O)c2ccccc2-3)n1 [Example 7, 5-methyl-3-[2-(6-methylpyridyl)]-2H,5H-1,3-oxazino[5,6-c][1,2]benzothiazine-2,4-(3H)dione-6,6-dioxide] | 20 mg/kg | 25 mg/kg | 7.5 mg/kg | 10 mg/kg
8 | 300 µM | CCCCC1C(=O)N(c2ccccc2)N(c2ccccc2)C1=O [Phenylbutazone, reference compound] | 17 mg/kg | 17 mg/kg | 40 mg/kg | 35 mg/kg
